Results reported in US20230227453A1 (priority 2020, published 2023).

What was measured:
[1] = molecular target: T1, 5-HT2C edited (accession number AAF35842.1) (Homo sapiens, UniProt P28335, I156V/I160V/N158S); test: cell-based
Target sequence in this assay (P28335 33-458 I156V/N158S/I160V limits assumed): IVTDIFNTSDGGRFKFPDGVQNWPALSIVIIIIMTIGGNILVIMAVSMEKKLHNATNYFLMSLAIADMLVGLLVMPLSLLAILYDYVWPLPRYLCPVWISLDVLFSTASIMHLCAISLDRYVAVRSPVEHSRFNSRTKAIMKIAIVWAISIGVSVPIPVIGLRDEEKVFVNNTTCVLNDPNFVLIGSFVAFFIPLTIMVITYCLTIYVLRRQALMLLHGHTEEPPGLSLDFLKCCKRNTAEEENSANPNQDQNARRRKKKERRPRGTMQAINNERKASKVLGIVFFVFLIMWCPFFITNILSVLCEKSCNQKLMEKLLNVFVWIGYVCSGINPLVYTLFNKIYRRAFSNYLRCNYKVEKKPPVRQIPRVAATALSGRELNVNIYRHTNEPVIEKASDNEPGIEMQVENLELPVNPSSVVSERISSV

[2] = molecular target: T1, 5-HT2C edited (accession number AAF35842.1); test: biochemical; type: binding
Target sequence in this assay (P28335 whole entry I156V/N158S/I160V, looked up): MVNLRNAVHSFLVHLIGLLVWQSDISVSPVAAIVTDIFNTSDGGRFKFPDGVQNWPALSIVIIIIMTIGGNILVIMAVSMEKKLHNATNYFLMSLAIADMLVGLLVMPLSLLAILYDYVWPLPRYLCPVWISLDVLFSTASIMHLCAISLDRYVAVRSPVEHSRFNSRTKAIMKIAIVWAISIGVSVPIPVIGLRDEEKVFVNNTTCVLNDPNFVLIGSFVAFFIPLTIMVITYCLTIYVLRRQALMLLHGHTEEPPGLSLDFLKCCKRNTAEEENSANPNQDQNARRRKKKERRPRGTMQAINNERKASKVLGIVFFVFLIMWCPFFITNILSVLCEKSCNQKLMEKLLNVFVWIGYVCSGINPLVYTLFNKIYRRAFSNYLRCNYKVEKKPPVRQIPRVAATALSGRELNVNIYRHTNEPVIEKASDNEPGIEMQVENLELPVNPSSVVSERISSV

Structure (SMILES) | EC50 [1] [nM] | IC50 [2] [nM]
COc1ccc2[nH]c3c(c2n1)CCN(C)CC3 [Example 15, 2-methoxy-8-methyl-5,6,7,8,9,10-hexahydropyrido[2′,3′:4,5]pyrrolo[2,3-d]azepine] | 10 to 100 | 10 to 100
Cn1c2c(c3cc(Cl)cnc31)CCN(C1COC1)CC2 [Example 29, 3-chloro-10-methyl-7-(oxetan-3-yl)-5,6,7,8,9,10-hexahydropyrido[3′,2′:4,5]pyrrolo[2,3-d]azepine] | 1000 to 10000 | 1000 to 10000
Cc1ccc2c3c([nH]c2n1)CCN(C1COC1)CC3 [Example 9, 2-methyl-7-(oxetan-3-yl)-5,6,7,8,9,10-hexahydropyrido[3′,2′:4,5]pyrrolo[2,3-d]azepine] | > 10000 | > 10000
COc1ccc2c3c(n(C)c2n1)CCN(C1COC1)CC3 [Example 6, 2-methoxy-10-methyl-7-(oxetan-3-yl)-5,6,7,8,9,10-hexahydropyrido[3′,2′:4,5]pyrrolo[2,3-d]azepine] | 101 to 1000 | 1000 to 10000
Cc1ccc2c3c(n(C)c2n1)CCN(C1COC1)CC3 [Example 11, 2,10-dimethyl-7-(oxetan-3-yl)-5,6,7,8,9,10-hexahydropyrido[3′,2′:4,5]pyrrolo[2,3-d]azepine] | > 10000 | 1000 to 10000
Cc1ccc2c3c([nH]c2n1)CCN(C)CC3 [Example 7, 2,7-dimethyl-5,6,7,8,9,10-hexahydropyrido[3′,2′:4,5]pyrrolo[2,3-d]azepine] | 101 to 1000 | 101 to 1000
COc1ccc2c3c(n(C)c2n1)CCN(C)CC3 [Example 3, 2-methoxy-7,10-dimethyl-5,6,7,8,9,10-hexahydropyrido[3′,2′:4,5]pyrrolo[2,3-d]azepine] | 101 to 1000 | 101 to 1000
CN1CCc2[nH]c3ncccc3c2CC1 [Example 20, 7-methyl-5,6,7,8,9,10-hexahydropyrido[3′,2′:4,5]pyrrolo[2,3-d]azepine] | 10 to 100 | 10 to 100
c1cnc2[nH]c3c(c2c1)CCN(C1COC1)CC3 [Example 22, 7-(oxetan-3-yl)-5,6,7,8,9,10-hexahydropyrido[3′,2′:4,5]pyrrolo[2,3-d]azepine] | 1000 to 10000 | > 10000
COc1cc2c3c([nH]c2cn1)CCN(C)CC3 [Example 14, 3-methoxy-7-methyl-5,6,7,8,9,10-hexahydropyrido[4′,3′:4,5]pyrrolo[2,3-d]azepine] | > 10000 | > 10000
Cn1c2c(c3cccnc31)CCN(C1COC1)CC2 [Example 23, 10-methyl-7-(oxetan-3-yl)-5,6,7,8,9,10-hexahydropyrido[3′,2′:4,5]pyrrolo[2,3-d]azepine] | 1000 to 10000 | 1000 to 10000
Brc1ccc2c3c([nH]c2n1)CCNCC3 [Example 16, 2-bromo-5,6,7,8,9,10-hexahydropyrido[3′,2′:4,5]pyrrolo[2,3-d]azepine] | < 10 | 10 to 100
CN1CCc2[nH]c3nc(Br)ccc3c2CC1 [Example 19, 2-bromo-7-methyl-5,6,7,8,9,10-hexahydropyrido[3′,2′:4,5]pyrrolo[2,3-d]azepine] | 10 to 100 | 101 to 1000
COc1ccc2c3c([nH]c2n1)CCN(C)CC3 [Example 1, 2-methoxy-7-methyl-5,6,7,8,9,10-hexahydropyrido[3′,2′:4,5]pyrrolo[2,3-d]azepine] | 101 to 1000 | 1000 to 10000
Cn1c2c(c3cccnc31)CCNCC2 [Example 18, 10-methyl-5,6,7,8,9,10-hexahydropyrido[3′,2′:4,5]pyrrolo[2,3-d]azepine] | < 10 | 10 to 100
c1cnc2[nH]c3c(c2c1)CCNCC3 [Example 17, 5,6,7,8,9,10-hexahydropyrido[3′,2′:4,5] pyrrolo[2,3-d] azepine] | < 10 | 10 to 100
Cc1ccc2c3c([nH]c2n1)CCNCC3 [Example 8, 2-methyl-5,6,7,8,9,10-hexahydropyrido[3′,2′:4,5]pyrrolo[2,3-d]azepine] | 10 to 100 | 101 to 1000
Cn1c2c(c3cc(Cl)cnc31)CCNCC2 [Example 28, 3-chloro-10-methyl-5,6,7,8,9,10-hexahydropyrido[3′,2′:4,5]pyrrolo[2,3-d]azepine] | 10 to 100 | 10 to 100
Clc1cnc2[nH]c3c(c2c1)CCN(C1COC1)CC3 [Example 27, 3-chloro-7-(oxetan-3-yl)-5,6,7,8,9,10-hexahydropyrido[3′,2′:4,5]pyrrolo[2,3-d]azepine] | 101 to 1000 | 101 to 1000
COc1ccc2c3c(n(C)c2n1)CCNCC3 [Example 5, 2-methoxy-10-methyl-5,6,7,8,9,10-hexahydropyrido[3′,2′:4,5]pyrrolo[2,3-d]azepine] | 10 to 100 | 10 to 100
CN1CCc2[nH]c3ncc(Cl)cc3c2CC1 [Example 26, 3-chloro-7-methyl-5,6,7,8,9,10-hexahydropyrido[3′,2′:4,5]pyrrolo[2,3-d]azepine] | 10 to 100 | 10 to 100
Cc1ccc2c3c(n(C)c2n1)CCN(C)CC3 [Example 12, 2,7,10-trimethyl-5,6,7,8,9,10-hexahydropyrido[3′,2′:4,5]pyrrolo[2,3-d]azepine] | 101 to 1000 | 101 to 1000
Cc1ccc2c3c(n(C)c2n1)CCNCC3 [Example 10, 2,10-dimethyl-5,6,7,8,9,10-hexahydropyrido[3′,2′:4,5]pyrrolo[2,3-d]azepine] | 10 to 100 | 101 to 1000
CN1CCc2c(n(C)c3ncc(Cl)cc23)CC1 [Example 30, 3-chloro-7,10-dimethyl-5,6,7,8,9,10-hexahydropyrido[3′,2′:4,5]pyrrolo[2,3-d]azepine] | 10 to 100 | 10 to 100
COc1ccc2c3c([nH]c2n1)CCN(C1COC1)CC3 [Example 4, 2-methoxy-7-(oxetan-3-yl)-5,6,7,8,9,10 hexahydropyrido[3′,2′:4,5]pyrrolo[2,3-d]azepine] | > 10000 | > 10000
Cn1c2c(c3ccc(Br)nc31)CCNCC2 [Example 25, 2-bromo-10-methyl-5,6,7,8,9,10-hexahydropyrido[3′,2′:4,5]pyrrolo[2,3-d]azepine] | < 10 | 10 to 100
Clc1cnc2[nH]c3c(c2c1)CCNCC3 [Example 13, 3-chloro-5,6,7,8,9,10-hexahydropyrido[3′,2′:4,5]pyrrolo[2,3-d] azepine] | < 10 | 10 to 100
COc1ccc2c3c([nH]c2n1)CCNCC3 [Example 2, 2-methoxy-5,6,7,8,9,10-hexahydropyrido[3′,2′:4,5]pyrrolo[2,3-d]azepine] | 10 to 100 | 101 to 1000
Brc1ccc2c3c([nH]c2n1)CCN(C1COC1)CC3 [Example 24, 2-bromo-7-(oxetan-3-yl)-5,6,7,8,9,10-hexahydropyrido[3′,2′:4,5]pyrrolo[2,3-d]azepine] | 101 to 1000 | 101 to 1000
CN1CCc2c(n(C)c3ncccc23)CC1 [Example 21, 7,10-dimethyl-5,6,7,8,9,10-hexahydropyrido[3′,2′:4,5]pyrrolo[2,3-d]azepine] | 10 to 100 | 10 to 100
